Results from patent US11529511B2, “Using alternating electric fields to increase cell membrane permeability” (The Board of Trustees of the Leland Stanford Junior …, priority 2018, dated 2022).

Legend:
[1] = tested on: U87-MG cells; assay: 5-ALA uptake measured by PpIX fluorescence, single U87-MG culture; format: cell-based, human
Method: Experiments were performed to determine the effects of TTFields on uptake of 5-ALA (as measured by PpIX accumulation and its resultant fluorescence) in glioblastoma cells. Because it is difficult to distinguish the margin between tumor and normal cells using the present 5-ALA bioassay, the measurement of PpIX fluorescence was used to address this issue. Investigations were run to determine whether permeation of 5-ALA through the cellular membrane and into the glioblastoma cells could be increased with TTFields exposure. U87-MG cells were exposed or unexposed to TTFields, each for durations of 6-24 h.
All monovariant statistical comparisons between no TTFields vs. TTFields samples done by Student's t-test for n=3 experiments per time point.

[2] = tested on: U87-MG GBM on PCS-201 fibroblast co-cultures; assay: 5-ALA uptake (PpIX fluorescence) in U87-MG GBM on PCS-201 fibroblast co-cultures
[3] = tested on: U87-MG/eGFP-fLuc cells; assay: Reversibility of the TTFields effect on uptake (BLI, PpIX, Dextran-FITC fluorescence); format: cell-based, human; conditions: TTFields 24 h vs. none vs. TTFields 24 h followed by 24 h no TTFields
Source text: All experimental conditions were done in triplicate.

[4] = tested on: MDA-MB-435 human melanoma cell line cells; assay: Permeability to 7-AAD under alternating electric fields, flow cytometry; format: cell-based; conditions: 150 kHz, 24 h
Method: After this 15 minute period, alternating electric field application was terminated and the cells were incubated at room temperature for an additional 15 minutes.
After this 24 hour period, the alternating electric fields were turned off for 15 minutes, after which the 7-AAD was added. After waiting an additional 15 minutes, the percentage of cells with increased accumulation of the fluorescent 7-AAD was determined using flow cytometry.

[5] = tested on: U87-MG cells; assay: Timing of permeability to 7-AAD after cessation of the field, flow cytometry; format: cell-based, human; conditions: 300 kHz, 1.62 V/cm RMS, 24 h; 7-AAD added 15 minutes prior to cessation of the field
Method: FIG. 7D depicts the results of an experiment to test how quickly the permeability drops back down after cessation of the alternating electric fields. More specifically, 7-Aminoactinomycin D (7-AAD) is a fluorescent chemical compound with a strong affinity for DNA. […] 7-AAD was introduced into samples at five different times: 15 minutes prior to the cessation of the alternating electric field; immediately after cessation of the alternating electric field; and 15, 30, and 60 minutes after cessation of the alternating electric field. In each case, the cells were incubated with 7-AAD for 30 minutes after introduction of the 7-AAD, followed by flow cytometry analysis of the percentage of cells with increased accumulation of the fluorescent 7-AAD for each of the different timings.

[6] = tested on: U87-MG/eGFP-fLuc cells; conditions: TTFields 4 V/cm, 200 kHz, 0.5-24 h vs. no TTFields
Method: U87-MG/eGFP-fLuc cells were seeded on Thermanox glass coverslips, allowed to settle and grow, and then subjected to either TTFields or no TTFields.
The coverslips were transferred to a ceramic dish of the Inovitro™ system, which in turn was mounted onto Inovitro™ base plates (Novocure Ltd., Haifa, Israel). Tumor treating fields at 200 kHz (1-4 V/cm) were applied through an Inovitro™ power generator. Incubator ambient temperatures spanned 20-27° C. with a target temperature of 37° C. in the ceramic dishes upon application of the TTFields. Duration of TTFields exposure lasted anywhere from 0.5 to 72 h, after which coverslips were removed and processed for the appropriate bioassays (see below). For reversibility experiments, the TTFields-exposed coverslips were transferred to a regular incubator without TTFields exposure for 24 h (off TTFields period to assess for reversibility of the TTFields effect on cell membrane permeability) prior to processing for the appropriate bioassays. Culture media were exchanged manually every 24 h throughout the experiments to account for evaporation. Corresponding control experiments (no TTFields) were done by placing equivalent coverslips within 6-well or 12-well plates into a conventional humidified tissue culture incubator (37° C., 95% air/5% CO2) and cells grown in parallel with the TTFields-exposed coverslips. […]

[7] = tested on: GBM39/Luc cells; assay: Drug sensitivity and synergy with TTFields; format: cell-based, human; conditions: TTFields for 3 days vs. no TTFields
[8] = tested on: pcGBM2/GFP-Luc cells; conditions: TTFields for 3 days vs. no TTFields
[9] = tested on: GBM39 cells; assay: Drug sensitivity with TTFields; format: cell-based, human; conditions: TTFields for 3 days vs. no TTFields
[10] = tested on: U87-MG/GFP-Luc cells; assay: Drug sensitivity and synergy with TTFields; format: cell-based, human; conditions: TTFields for 3 days vs. no TTFields
[11] = tested on: glioblastoma patients; assay: Survival of glioblastoma patients, TTFields plus temozolomide vs. temozolomide alone; format: in vivo, human; conditions: after 1 year of TTFields exposure
Source text: The treatment of glioblastoma (GBM) using alternating electric fields is a novel, validated therapy that has become an additional modality (after surgery chemoradiation and chemotherapy) for anti-cancer treatments. Intermediate frequency alternating electric fields (100-500 kHz) have been studied in detail. […] In the context of treating tumors, alternating electric fields at these frequencies are often referred to as “tumor treating fields” or “TTFields.”
Recurrence of GBM is inevitable and the median time to first recurrence despite standard therapy is approximately 7 months. […] TTFields compliance (≥75% vs. <75%) was an independent predictor of overall survival in the retrospective analysis of the full EF-14 trial dataset and the duration of use of TTFields was also found to affect overall survival. […] Namely, a correlation between the length of TTFields exposure and the duration of its effect on cell membrane permeability after cessation of TTFields was observed. At lengths of TTFields exposure of 0.5-3 h, the duration in BLI augmentation (compared to no TTFields conditions) lasted about 5 min. However, at TTFields exposures of 12-25 h, this difference in BLI between TTFields and no TTFields conditions lasted for more than 20 min.

[12] = tested on: U87-MG/eGFP-fLuc cells; assay: Annexin-V-APC binding (apoptosis) by fluorescence microscopy; format: cell-based, human; conditions: 21 μM, TTFields-unexposed
Method: To test if the imposition of TTFields affects cell membrane properties, and thus membrane permeability, the effect of TTFields on the behavior of fluorescently tagged reagents that bind to the cellular membrane was determined. Initially, the impact of TTFields on the binding of Annexin-V-APC to the membrane of U87-MG/eGFP-fLuc cells was measured. Annexin-V-APC binding is a signature of early apoptosis which is characterized by ruffling of the membrane.

[13] = tested on: human glioblastoma cells; assay: Growth inhibition by TTFields in conjunction with Withaferin A; format: cell-based
Source text: In this figure, 5-ALA=5-aminolevulinic acid; Ethidium D=ethidium bromide; and FITC=fluorescein isothiocyanate.

[14] = tested on: KR158B; assay: Bioluminescence of Renilla luciferase-expressing astrocytoma cells, TTFields vs. no TTFields; format: cell-based, murine
Method: Studies were then performed that validate the hypothesis.
Renilla luciferase activity is not dependent upon ATP and magnesium (as opposed to firefly luciferase). Thus, it is believed that the induction of bioluminescence by TTFields was not due to alterations in endogenous pools of ATP.

[15] = tested on: MDA-MB-435 cells, wild type; assay: Intracellular accumulation of doxorubicin under alternating electric fields; format: cell-based, human; conditions: 10 μM, 1 h; 150 kHz, 1.62 V/cm vs. no field
[16] = tested on: MES-SA cells; assay: Intracellular accumulation of doxorubicin under 150 kHz alternating electric fields; format: cell-based; conditions: 10 μM, 1 h, 1.62 V/cm RMS, 24 hours vs. no field
[17] = tested on: MDA-MB-435 cells, doxorubicin resistant; assay: Intracellular accumulation of doxorubicin under alternating electric fields; format: cell-based, human; conditions: 10 μM, 1 h; 150 kHz, 1.62 V/cm vs. no field
[18] = tested on: MDA-MB-235 cells; assay: Drug sensitivity and synergy with TTFields; format: cell-based; conditions: TTFields for 3 days vs. no TTFields
[19] = tested on: MCF-7 cells, wild type; assay: Intracellular accumulation of mitoxantrone under alternating electric fields; format: cell-based, human; conditions: 2 μM, 1 h; 150 kHz, 1.62 V/cm vs. no field
Method: (§1) The intracellular accumulation of mitoxantrone was then measured.

[20] = tested on: MCF-7 cells, mitoxantrone resistant; assay: as above; format: cell-based, human; conditions: 2 μM, 1 h; 150 kHz, 1.62 V/cm vs. no field
Method: as §1

[21] = target: T1, firefly luciferase (Photinus pyralis, UniProt P08659); assay: Activity of purified firefly luciferase exposed to TTFields; format: biochemical; conditions: TTFields vs. no TTFields, p<0.01
T1 construct: purchased Sigma Aldrich Inc SRE0045-2MG
T1 sequence (P08659 whole entry): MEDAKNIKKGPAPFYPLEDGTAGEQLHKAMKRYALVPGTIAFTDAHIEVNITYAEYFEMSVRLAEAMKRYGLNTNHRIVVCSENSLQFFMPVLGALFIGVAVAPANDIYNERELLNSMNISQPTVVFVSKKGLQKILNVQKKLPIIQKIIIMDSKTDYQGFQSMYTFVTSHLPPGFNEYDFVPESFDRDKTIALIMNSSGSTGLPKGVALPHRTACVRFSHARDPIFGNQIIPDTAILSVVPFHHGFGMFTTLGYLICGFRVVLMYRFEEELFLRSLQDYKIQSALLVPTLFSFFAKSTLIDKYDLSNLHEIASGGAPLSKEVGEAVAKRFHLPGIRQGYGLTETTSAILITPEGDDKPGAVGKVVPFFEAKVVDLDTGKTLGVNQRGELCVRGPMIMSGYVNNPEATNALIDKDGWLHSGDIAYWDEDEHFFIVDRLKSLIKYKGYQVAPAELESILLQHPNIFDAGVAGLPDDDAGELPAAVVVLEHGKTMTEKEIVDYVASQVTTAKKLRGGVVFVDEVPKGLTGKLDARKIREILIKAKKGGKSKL

## NCC(=O)CCC(=O)O [5-ALA, 5-aminolevulinic acid]
[1]; 6 h TTFields (200 kHz) vs. no TTFields, p=0.047
  uptake (PpIX fluorescence): significantly increased uptake
[1]; 24 h TTFields (200 kHz) vs. no TTFields, p=0.011
  uptake (PpIX fluorescence): increase was maintained
[2]; TTFields 2, 6, 24 h vs. unexposed co-cultures, p<0.001
  rate of PpIX fluorescence intensity increase: significantly augmented
[2]; TTFields vs. no TTFields
  tumor to normal cell ratio for PpIX fluorescence: significantly enhances
[3]
  uptake with field and after cessation of the field: reversibly increase uptake

## Cc1c2oc3c(C)c(N)cc(C(=O)N[C@@H]4C(=O)N[C@H](C(C)C)C(=O)N5CCC[C@H]5C(=O)N(C)CC(=O)N(C)[C@@H](C(C)C)C(=O)O[C@@H]4C)c3nc-2c(C(=O)N[C@@H]2C(=O)N[C@H](C(C)C)C(=O)N3CCC[C@H]3C(=O)N(C)CC(=O)N(C)[C@@H](C(C)C)C(=O)O[C@@H]2C)c(N)c1=O [7-AAD, 7-Aminoactinomycin D]
[4]; 1.62V/cm, 7-AAD added 15 minutes after fields turned off
  percentage of cells with increased accumulation of 7-AAD: ~20%
[4]; 1.62 V/cm, 7-AAD added for the last 15 minutes of the field
  percentage of cells with increased accumulation of 7-AAD: ~66%
[5]
  percentage of cells with increased accumulation of 7-AAD: significant increase in accumulation

## O=C(O)[C@H]1CSC(c2nc3ccc(O)cc3s2)=N1 [D-luciferin]
[6]
  permeation of the luciferase substrate through the plasma membrane (bioluminescence): increased permeation
[3]
  uptake with field and after cessation of the field: reversibly increase uptake

## CCc1c2c(nc3ccc(OC(=O)N4CCC(N5CCCCC5)CC4)cc13)-c1cc3c(c(=O)n1C2)COC(=O)[C@]3(O)CC [Irinotecan]
[7]
  sensitivity of cells to the drug: improves the sensitivity

## O=NN(CCCl)C(=O)NC1CCCCC1 [Lomustine]
[8]
  sensitivity of cells to the drug: improves the sensitivity
[9]
  sensitivity of cells to the drug: improves the sensitivity
[10]
  sensitivity of cells to the drug: improves the sensitivity

## Cn1nnc2c(C(N)=O)ncn2c1=O [Temozolomide]
[11]
  percent increase in overall survival: 32%

## CC1=C(CO)C(=O)O[C@@H]([C@@H](C)[C@H]2CC[C@H]3[C@@H]4C[C@H]5O[C@]56[C@@H](O)C=CC(=O)[C@]6(C)[C@H]4CC[C@]23C)C1 [Withaferin A]
[12]
  Annexin-V-APC binding (positive control for apoptosis): could be visualized
[13]
  growth inhibition in conjunction with TTFields: synergistically inhibited the growth

## Oc1ccc(Cc2nc3c(Cc4ccccc4)nc(-c4ccc(O)cc4)cn3c2O)cc1 [coelenterazine]
[14]
  permeation of the luciferase substrate through the plasma membrane (bioluminescence): increased permeation

## COc1cccc2c1C(=O)c1c(O)c3c(c(O)c1C2=O)C[C@@](O)(C(=O)CO)C[C@@H]3O[C@H]1C[C@H](N)[C@H](O)[C@H](C)O1 [doxorubicin]
[15]
  intracellular accumulation: increased
[16]
  increase of intracellular accumulation: more than 2 ×
[17]
  intracellular accumulation: increased
[18]
  sensitivity of cells to the drug: improves the sensitivity

## O=C1c2c(O)ccc(O)c2C(=O)c2c(NCCNCCO)ccc(NCCNCCO)c21 [mitoxantrone]
[19]
  intracellular accumulation: increased
[20]
  intracellular accumulation: increased

## firefly luciferase: purified firefly luciferase (SRE0045-2MG) purchased from Sigma Aldrich
[21]
  activity of purified firefly luciferase: significantly decreased activity
